Experimental data from ChEMBL document CHEMBL3217504, “Potent growth inhibitory activity of ()-platencin towards multi-drug-resistant and extensively drug-resistant Mycobacterium tuberculosis” (2013).
≈ marks a conversion by molar mass, not a printed value.

What was measured:
Format in all cases: functional
[1] = system: Mycolicibacterium smegmatis; assay: Antimycobacterial activity against Mycobacterium smegmatis ICHO1001 harboring pMV261
[2] = system: Mycolicibacterium smegmatis; assay: Antimycobacterial activity against Mycobacterium smegmatis ICHO1019 overexpressing FabH
[3] = system: Mycobacterium tuberculosis; assay: Ratio of MBC99.9 to MIC for Mycobacterium tuberculosis LV54
[4] = system: Mycolicibacterium smegmatis; assay: Selectivity ratio of MIC for Mycobacterium smegmatis ICHO1018 overexpressing KasB to MIC for wild-type Mycobacterium smegmatis MC2 155
[5] = system: Mycolicibacterium smegmatis; assay: Antimycobacterial activity against Mycobacterium smegmatis ICHO1017 overexpressing KasA
[6] = system: Mycolicibacterium smegmatis; assay: Antimycobacterial activity against Mycobacterium smegmatis ICHO1018 overexpressing KasB
[7] = system: Mycolicibacterium smegmatis; assay: Antimycobacterial activity against wild-type Mycobacterium smegmatis MC2 155; details: str. MC2 155
[8] = system: Mycobacterium tuberculosis; assay: Ratio of MBC99.9 to MIC for Mycobacterium tuberculosis H37Rv ATCC 27294
[9] = system: Mycobacterium tuberculosis; assay: Antimycobacterial activity against Mycobacterium tuberculosis H37Rv ATCC 27294 by microbroth dilution method
[10] = system: Mycolicibacterium smegmatis; assay: Antimycobacterial activity against Mycobacterium smegmatis MC2 155 under hypoxic condition after 96 hrs; details: str. MC2 155, 96 h
[11] = system: Mycolicibacterium smegmatis; assay: Antimycobacterial activity against Mycobacterium smegmatis MC2 155 under aerobic condition after 48 hrs by MTT assay; details: str. MC2 155, 48 h
[12] = system: Mycobacterium tuberculosis; assay: Antimycobacterial activity against Mycobacterium tuberculosis LV54 by microbroth dilution method

Row | Structure (SMILES) | MIC [1] | MIC [2] | Ratio [3] | Ratio [4] | MIC [5] | MIC [6] | MIC [7] | Ratio [8] | MIC [9] | MIC [10] | MIC [11] | MIC [12]
1 | C=C1C[C@@]23C=CC(=O)[C@@](C)(CCC(=O)Nc4c(O)ccc(C(=O)O)c4O)[C@@H]2C[C@@H]1CC3 (racemic) [PLATENCIN] | 0.5 mg/L (≈ 1.18 µM) | 1 mg/L (≈ 2.35 µM) | >64 | >17 | 1 mg/L (≈ 2.35 µM) | > 8.5 mg/L | 0.5 mg/L (≈ 1.18 µM) | >64 | 2 mg/L (≈ 4.7 µM) | 0.3 mg/L (≈ 0.705 µM) | 0.5 mg/L (≈ 1.18 µM) | 1 mg/L (≈ 2.35 µM)
2 | NNC(=O)c1ccncc1 [ISONIAZID] |  |  |  |  |  |  |  |  |  | 25 mg/L (≈ 182 µM) | 2.5 mg/L (≈ 18.2 µM) | 
